Measurements taken from patent publication US11400107B2, “Cancer treatments” (NuCana plc, priority 2016, dated 2022).
Entries after “also recorded” stand apart in the source; their conditions may differ.

What was measured:
Format in all cases: cell-based, human
KG1a cells = assay: In vitro apoptosis / LD50 assay (Annexin V) in KG1a cells; conditions: for LD50: KG1a cells (FIG. 7A), 72 h
Method: The acute myeloid leukaemia (AML) KG1a cell line was maintained in RPMI medium (Invitrogen, Paisley, UK) supplemented with 100 units/ml penicillin, 100 μg/ml streptomycin and 20% fetal calf serum. Cells were subsequently aliquoted (10^5 cells/100 μl) into 96-well plates and were incubated at 37° C. in a humidified 5% carbon dioxide atmosphere for 72 h in the presence of NUC-1031 or gemcitabine at concentrations that were experimentally determined for each compound. In addition, control cultures were carried out to which no drug was added. Cells were subsequently harvested by centrifugation and were analysed by flow cytometry using the Annexin V assay.
Cultured cells were harvested by centrifugation and then resuspended in 195 μl of calcium-rich buffer. Subsequently, 5 μl of Annexin V (Caltag Medsystems, Botolph Claydon, UK) was added to the cell suspension and cells were incubated in the dark for 10 mins prior to washing. Cells were finally resuspended in 190 μl of calcium-rich buffer together with 10 μl of propidium iodide. Apoptosis was assessed by dual-colour immunofluorescent flow cytometry as described previously. Subsequently LD50 values (the dose required to kill 50% of the cells in a culture) were calculated for each nucleoside analogue and ProTide.
(§1) The data obtained in these experiments were evaluated using one way ANOVA. All data was confirmed as Gaussian or a Gaussian approximation using the omnibus K2 test. LD50 values were calculated from the non-linear regression and line of best-fit analysis of the sigmoidal dose-response curves. All statistical analyses were performed using Graphpad Prism 6.0 software (Graphpad Software Inc., San Diego, Calif.).

[1] = test system: Lin^−/CD34^+/CD38^−/CD123^+ cancer stem cells in KG1a cells; assay: Immunophenotypic quantification of the leukaemic stem cell compartment in KG1a cells; conditions: for proportion of cancer stem cells as compared to non-stem cancer cells after treatment: 72 h; for selectivity for cancer stem cells as opposed to non-stem cancer cells (summary): summary statement of the description
Method: The respective abilities of NUC-1031 and gemcitabine to target CSCs were investigated in the AML cell line KG1a.
KG1a cells were cultured for 72 hours in the presence of a wide range of concentrations of each nucleoside analogue and their respective ProTides. Cells were then harvested and labelled with a cocktail of anti-lineage antibodies (PE-cy7), anti-CD34 (FITC), anti-CD38 (PE) and anti-CD123 (PERCP cy5). The sub-population expressing a leukaemic stem cell (LSC) phenotype were subsequently identified and were expressed as a percentage of all viable cells left in the culture. The percentages of stem cells remaining were then plotted on a dose-response graph and the proportion of cancer stem cells was compared across the various concentrations of ProTides and their respective parent compounds, in order to determine if they preferentially target cancer stem cells.
as §1

[2] = test system: primary acute myeloid leukaemia (AML) blasts; assay: In vitro cytotoxicity assay (LD50) in primary acute myeloid leukaemia cells; conditions: for LD50: primary AML blasts, 48 h, concentration required to kill 50% of the tumour cells in culture; for potency as compared to the respective parent compound (summary): summary statement of the description
Method: ProTide compounds, as defined herein, and the comparator ProTide compound NUC-1031 were assayed for their cytotoxic effects on primary cultures of acute myeloid leukaemia (AML) blasts. LD50 values (the concentration required to kill 50% of the tumour cells in culture) were calculated in respect of the ProTide compounds of the invention, and the parent compounds from which they are derived. […] The LD50 values of the ProTide compounds as defined herein (and their parent compounds) were compared with the comparator ProTide NUC-1031 and its parent compound gemcitabine.
Bone marrow samples were collected in ethylenediaminetetraacetic acid (EDTA) from newly diagnosed, previously untreated, acute myeloid leukaemia (AML) patients. AML blasts were enriched by density gradient centrifugation using Histopaque (Sigma, Poole, UK) and were subsequently maintained in Roswell Park Memorial Institute medium (RPMI) supplemented with 10% foetal bovine serum (FBS). Cells were treated with ProTide compounds (either as encompassed by the present invention, or the comparator ProTide NUC-1031) or with the ProTides' parent compounds at a range of experimental concentrations, and incubated for 48 h. All cultures were maintained at 37° C. in a 5% CO2 humidified atmosphere.
Cells were harvested and labelled with CD34-fluorescein isothiocyanate (FITC) (BD Biosciences, Buckingham, UK) and then resuspended in 200 μl of binding buffer containing 4 μl of annexin V labelled with allophycocyanin (APC) (eBioscience Ltd, Hatfield, UK). Apoptosis was quantified in the CD34^+ AML cells using an Accuri C6 flow cytometer (Becton Dickinson, CA, USA). At least 10,000 events were acquired and data were subsequently analysed using FlowJo software (Tree Star Inc., Ashland, Oreg., USA). All LD50 values (concentration of drug required to kill 50% of cells) were derived from the dose-response curves.

Row | SMILES | LD50 (KG1a cells) [µM] | potency relative to FUDR (times more potent) (KG1a cells; from LD50 values) | low concentration at which the selective reduction of cancer stem cells was still observed ([1]; KG1a cells) | proportion of cancer stem cells as compared to non-stem cancer cells after treatment ([1]; KG1a cells) | selectivity for cancer stem cells as opposed to non-stem cancer cells (summary) [1] | LD50 [2] | potency as compared to the respective parent compound (summary) [2] | selectivity against cancer stem cells compared to the parent compound ([1]; KG1a cells)
1 | CCCCCOC(=O)[C@H](C)NP(=O)(OC[C@H]1O[C@@H](n2cc(F)c(=O)[nH]c2=O)CC1O)Oc1cccc2ccccc12 (stereo partly drawn) [CPF-581] | 0.027 | over 50 times | approximately 8×10^−8 M | reduction in the proportion of cancer stem cells | selectively target for cancer stem cells; also recorded: high selectivity for cancer stem cells | CPF 581 0.027 μM | greater potency | 
2 | C[C@H](NP(=O)(OC[C@H]1O[C@@H](n2cnc3c(=S)[nH]c(N)nc32)[C@@H](O)C1O)Oc1ccccc1)C(=O)OCc1ccccc1 (stereo partly drawn) [CPF-782] |  |  |  | strong reduction in the proportion of cancer stem cells | selectively target for cancer stem cells; also recorded: high selectivity for cancer stem cells | CPF 782 0.82 μM | greater potency | most selective; also recorded: statistically significant increases in selectivity at certain concentrations
3 | O=c1[nH]c(=O)n([C@H]2C[C@H](O)[C@@H](CO)O2)cc1F [FUDR] | 1.18 |  |  | reduction in the proportion of cancer stem cells |  | FUDR 1.18 μM |  | 
